Assay results published in the supplement of paper PMC5908809.

Experiments:
[1] = tested on: normal NK cells expanded with K562-aAPC; assay: percent inhibition of viability; higher = more inhibition; conditions: 72 h, IL-2 2.5 ng/mL
Description: (§1)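 Drug sensitivity and resistance testing on K562-aAPC-expanded normal NK cells: 5 concentrations (10-fold steps over a 10,000-fold range), 72 h at 37 °C, viability by CellTiter-Glo normalised to DMSO and benzethonium chloride controls; DSS from the fitted curve.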

[2] = tested on: normal primary NK cells, pool 1 (3 donors) (IL-2 2.5 ng/mL); assay: as above; conditions: 72 h
[3] = tested on: KAI3 (IL-2 2.5 ng/mL); assay: as above; conditions: 72 h
[4] = tested on: normal primary NK cells, pool 2 (3 donors) (IL-2 2.5 ng/mL); assay: as above; conditions: 72 h
[5] = tested on: NK-YS (IL-2 2.5 ng/mL); assay: as above; conditions: 72 h
[6] = tested on: IMC-1 (IL-2 20 ng/mL); assay: as above; conditions: 72 h
[7] = tested on: KHYG-1 (IL-2 2.5 ng/mL); assay: as above; conditions: 72 h
[8] = tested on: normal primary NK cells, pool 3 (3 donors) (IL-2 2.5 ng/mL); assay: as above; conditions: 72 h
[9] = tested on: SNK-6 (IL-2 2.5 ng/mL); assay: as above; conditions: 72 h
[10] = tested on: YT (IL-2 2.5 ng/mL); assay: as above; conditions: 72 h
[11] = tested on: DERL-7 (IL-2 2.5 ng/mL); assay: as above; conditions: 72 h
[12] = tested on: normal primary NK cells, pool 1 (3 donors), resting (IL-2 0 ng/mL); assay: as above; conditions: 72 h
[13] = tested on: NK-92 (IL-2 2.5 ng/mL); assay: as above; conditions: 72 h
[14] = tested on: NKL (IL-2 2.5 ng/mL); assay: as above; conditions: 72 h
[15] = tested on: normal primary NK cells, pool 1 (3 donors) (IL-2 2.5 ng/mL); assay: drug sensitivity score (DSS) (DSS units); higher = more sensitive; extreme values may be limits of the assay; conditions: 72 h
[16] = tested on: KAI3 (IL-2 2.5 ng/mL); assay: as above; conditions: 72 h
[17] = tested on: normal primary NK cells, pool 2 (3 donors) (IL-2 2.5 ng/mL); assay: as above; conditions: 72 h
[18] = tested on: NK-YS (IL-2 2.5 ng/mL); assay: as above; conditions: 72 h
[19] = tested on: IMC-1 (IL-2 20 ng/mL); assay: as above; conditions: 72 h
[20] = tested on: KHYG-1 (IL-2 2.5 ng/mL); assay: as above; conditions: 72 h
[21] = tested on: normal primary NK cells, pool 3 (3 donors) (IL-2 2.5 ng/mL); assay: as above; conditions: 72 h
[22] = tested on: SNK-6 (IL-2 2.5 ng/mL); assay: as above; conditions: 72 h
[23] = tested on: YT (IL-2 2.5 ng/mL); assay: as above; conditions: 72 h
[24] = tested on: DERL-7 (IL-2 2.5 ng/mL); assay: as above; conditions: 72 h
[25] = tested on: normal primary NK cells, pool 1 (3 donors), resting (IL-2 0 ng/mL); assay: as above; conditions: 72 h
[26] = tested on: NK-92 (IL-2 2.5 ng/mL); assay: as above; conditions: 72 h
[27] = tested on: NKL (IL-2 2.5 ng/mL); assay: as above; conditions: 72 h
[28] = tested on: normal NK cells expanded with K562-aAPC; assay: as above; conditions: 72 h; IL-2 2.5 ng/mL
Description: as §1

Nc1cc(F)ccc1NC(=O)/C=C/c1cnn(C/C=C/c2ccccc2)c1 [RGFP966] (max concentration tested 10000 nM)
percent inhibition of viability [%]
Conditions | 1 nM | 10 nM | 100 nM | 1000 nM | 10000 nM
[1] | 4.29 | 0.23 | 1.76 | 9.82 | 9.19
[2] | -6.12 | -12 | 2.42 | -14.4 | -7.06
[3] | 3.23 | 7.54 | 1.59 | 11.1 | 70.5
[4] | -11.2 | -8.68 | 8.11 | 0.44 | 9.58
[5] | -1.47 | 0.43 | 1.84 | 5.06 | 33.6
[6] | -2.38 | 0.66 | 0.87 | 7.16 | 19.2
[7] | -1.2 | 0.69 | 1.5 | 8.74 | 43.4
[8] | -1.19 | -0.09 | 10.8 | -6.25 | 4.39
[9] | 6.08 | 7.31 | 9.67 | 21 | 62.2
[10] | -2.17 | -1.29 | 1.57 | 1.53 | 26.1
[11] | -5.83 | -2.09 | 9.7 | 22.7 | 77.1
[12] | 0.87 | -9.67 | -2.19 | -2.37 | 16.1
[13] | 3.38 | 1.97 | 18.1 | 20.7 | 79.9
[14] | -2.36 | 10.4 | 5.66 | 29.4 | 82.3

Conditions | drug sensitivity score
[15] | 0
[16] | 5.75
[17] | 0
[18] | 2.39
[19] | 1.17
[20] | 3.64
[21] | 0
[22] | 5.69
[23] | 1.24
[24] | 7.16
[25] | 0.22
[26] | 6.98
[27] | 8.18
[28] | 0

CC(O)(CS(=O)(=O)c1ccc(F)cc1)C(=O)Nc1ccc(C#N)c(C(F)(F)F)c1 (stereo not drawn) [Bicalutamide] (max concentration tested 10000 nM)
percent inhibition of viability [%]
Conditions | 1 nM | 10 nM | 100 nM | 1000 nM | 10000 nM
[1] | 5.68 | 3.24 | 1.15 | 11.5 | 13.4
[2] | -3.4 | -8.36 | -1.19 | -15.8 | 6.46
[3] | 14.6 | 10.8 | 21.5 | 20.8 | 43.6
[4] | -0.02 | -1.32 | -0.86 | -0.13 | 7.12
[5] | 9.7 | 4 | 13.7 | 9.96 | 23.5
[6] | 3.29 | 5.96 | 8.36 | 9.75 | 42.3
[7] | 3.99 | 22.1 | 3.98 | 27.4 | 19.9
[8] | 3.23 | -2.54 | 5.11 | -2.8 | -0.48
[9] | 9.4 | 13.4 | 4.02 | 9.59 | 26.6
[10] | 3.05 | 13.5 | 3.8 | 17.9 | 16.7
[11] | 1.65 | 7.46 | -4.98 | 5.71 | 5.22
[12] | 2.97 | -8.07 | -9.37 | -26.1 | -10.4
[13] | 10.3 | 8.57 | 4.92 | 20.1 | 30.6
[14] | 0.19 | 16.2 | 5.15 | 40.3 | 35.9

Conditions | drug sensitivity score
[15] | 0
[16] | 7.75
[17] | 0
[18] | 2.2
[19] | 3.5
[20] | 4.48
[21] | 0
[22] | 2.16
[23] | 1.84
[24] | 0
[25] | 0
[26] | 3.61
[27] | 8.09
[28] | 0.74
